Measured values: ChEMBL document CHEMBL1158906, “Biological Activities of Avarol Derivatives, 1. Amino Derivatives” (J Nat Prod, 1990)
Converted amounts (≈) assume the structure as drawn.

Experiments:
[1] = tested on: Agrobacterium tumefaciens; test: Antitumor activity assessed as inhibition of Agrobacterium tumefaciens B6-induced tumor formation after 12 days by potato disk assay; format: functional
Staphylococcus aureus = test: Antimicrobial activity against Staphylococcus aureus ATCC 25293 by serial dilution method; format: functional
Artemia = test: Toxicity against brine shrimp; format: organism-based; details: in vivo

Row | Compound | inhibition (INH) [1] [%] | MIC (Staphylococcus aureus) [µg/mL] | LC50 (Artemia) [ppm]
1 | CCNC1=CC(=O)C(C[C@]2(C)[C@@H](C)CC[C@]3(C)C(C)=CCC[C@@H]23)=CC1=O | 38 | > 100 | 0.27
2 | CCNC1=CC(=O)C=C(C[C@]2(C)[C@@H](C)CC[C@]3(C)C(C)=CCC[C@@H]23)C1=O | 54 | > 100 | 0.81
3 | CC1(C)S[C@@H]2[C@H](NC(=O)Cc3ccccc3)C(=O)N2[C@H]1C(=O)[O-].[Na+] [PENICILLIN G SODIUM] | – | 0.04 | –
4 | CC1=CCC[C@H]2[C@](C)(CC3=CC(=O)C(N)=CC3=O)[C@@H](C)CC[C@]12C | 55 | 50 (≈ 153 µM) | 0.23
5 | CC1=CCC[C@H]2[C@](C)(Cc3cc(=O)c4[nH]c5ncnc6ncn(c=4c3=O)c65)[C@@H](C)CC[C@]12C | 27 | 12.5 (≈ 28.2 µM) | 70.2
6 | CNC1=CC(=O)C(C[C@]2(C)[C@@H](C)CC[C@]3(C)C(C)=CCC[C@@H]23)=CC1=O | 57 | > 100 | 0.34
7 | CC1=CCC[C@H]2[C@](C)(CC3=CC(=O)C=CC3=O)[C@@H](C)CC[C@]12C [AVARONE] | 63 | 1.56 (≈ 4.99 µM) | 0.14
8 | CC1=CCC[C@H]2[C@](C)(CC3=CC(=O)C=C(N)C3=O)[C@@H](C)CC[C@]12C | 53 | 50 (≈ 153 µM) | 0.24
9 | CC1=CCC[C@H]2[C@](C)(CC3=CC(=O)C(N[C@@H]4[C@@H](O)[C@H](O)[C@@H](CO)O[C@H]4O)=CC3=O)[C@@H](C)CC[C@]12C | 38 | 6.25 (≈ 12.8 µM) | 11.5
10 | CC1=CCC[C@H]2[C@](C)(CC3=CC(=O)C(N[C@@H](C)C(=O)O)=CC3=O)[C@@H](C)CC[C@]12C | 38 | 6.25 (≈ 15.6 µM) | 2
